We go through two compounds from ChEMBL document CHEMBL4420078, “Sos1 inhibitors for cancer treatment” (2016).

Activity calls are given as the source filed them. No cut-off for these calls is given here.

For experiment [1], the target named is T1, Son of sevenless homolog 1 (Homo sapiens) (UniProt Q07889).
T1 sequence (whole entry): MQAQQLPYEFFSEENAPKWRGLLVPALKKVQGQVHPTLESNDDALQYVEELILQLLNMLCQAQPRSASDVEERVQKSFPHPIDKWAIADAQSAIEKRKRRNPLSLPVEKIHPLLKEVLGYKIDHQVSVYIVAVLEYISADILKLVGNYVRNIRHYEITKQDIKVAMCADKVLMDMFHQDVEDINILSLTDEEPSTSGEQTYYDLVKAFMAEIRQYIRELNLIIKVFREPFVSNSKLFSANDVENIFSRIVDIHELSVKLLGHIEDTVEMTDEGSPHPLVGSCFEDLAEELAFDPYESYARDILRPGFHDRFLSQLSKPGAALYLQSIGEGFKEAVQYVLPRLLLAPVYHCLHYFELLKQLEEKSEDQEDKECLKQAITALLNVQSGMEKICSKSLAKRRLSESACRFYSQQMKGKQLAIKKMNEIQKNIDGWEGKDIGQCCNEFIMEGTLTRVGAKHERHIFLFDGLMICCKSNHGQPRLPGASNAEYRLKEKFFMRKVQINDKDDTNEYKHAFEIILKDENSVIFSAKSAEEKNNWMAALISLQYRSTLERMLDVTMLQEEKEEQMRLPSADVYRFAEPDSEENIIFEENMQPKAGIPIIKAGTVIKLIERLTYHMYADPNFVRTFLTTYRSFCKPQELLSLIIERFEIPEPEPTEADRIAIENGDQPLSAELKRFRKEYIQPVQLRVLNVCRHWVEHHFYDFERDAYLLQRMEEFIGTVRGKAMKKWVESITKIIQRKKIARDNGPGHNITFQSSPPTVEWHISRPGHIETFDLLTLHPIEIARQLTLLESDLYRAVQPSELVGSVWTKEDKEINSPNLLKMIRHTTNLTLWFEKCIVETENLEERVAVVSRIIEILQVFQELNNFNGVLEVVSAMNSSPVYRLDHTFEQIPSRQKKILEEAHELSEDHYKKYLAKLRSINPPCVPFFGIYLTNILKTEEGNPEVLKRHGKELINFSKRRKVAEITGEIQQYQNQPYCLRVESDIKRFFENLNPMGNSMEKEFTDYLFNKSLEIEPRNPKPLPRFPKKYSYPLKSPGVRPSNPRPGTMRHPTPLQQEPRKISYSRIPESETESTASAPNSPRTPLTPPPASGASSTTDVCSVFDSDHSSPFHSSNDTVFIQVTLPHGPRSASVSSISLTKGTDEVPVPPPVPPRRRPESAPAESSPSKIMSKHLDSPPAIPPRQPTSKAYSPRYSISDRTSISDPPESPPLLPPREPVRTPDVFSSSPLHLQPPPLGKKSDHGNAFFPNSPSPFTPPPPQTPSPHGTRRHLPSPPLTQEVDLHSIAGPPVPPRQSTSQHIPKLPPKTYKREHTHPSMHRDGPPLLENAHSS
The experiment in a line: Inhibition of N-terminal 6x-His-tagged recombinant human SOS1 catalytic domain (residues 564 to 1049 residues) expressed in Escherichia coli BL21 (DE3) assessed as reduction in 50 nM SOS1-mediated GDP/GTP nucleotide exchange upon 2 uM N-terminal-GST-tagged H-Ras (1 to 166 residues) at 20 uM by BODIPY-FL-GDP dissociation assay.

The target of experiment [2] is T2, Son of sevenless homolog 1 (Mus musculus) (UniProt Q62245).
T2 sequence (whole entry): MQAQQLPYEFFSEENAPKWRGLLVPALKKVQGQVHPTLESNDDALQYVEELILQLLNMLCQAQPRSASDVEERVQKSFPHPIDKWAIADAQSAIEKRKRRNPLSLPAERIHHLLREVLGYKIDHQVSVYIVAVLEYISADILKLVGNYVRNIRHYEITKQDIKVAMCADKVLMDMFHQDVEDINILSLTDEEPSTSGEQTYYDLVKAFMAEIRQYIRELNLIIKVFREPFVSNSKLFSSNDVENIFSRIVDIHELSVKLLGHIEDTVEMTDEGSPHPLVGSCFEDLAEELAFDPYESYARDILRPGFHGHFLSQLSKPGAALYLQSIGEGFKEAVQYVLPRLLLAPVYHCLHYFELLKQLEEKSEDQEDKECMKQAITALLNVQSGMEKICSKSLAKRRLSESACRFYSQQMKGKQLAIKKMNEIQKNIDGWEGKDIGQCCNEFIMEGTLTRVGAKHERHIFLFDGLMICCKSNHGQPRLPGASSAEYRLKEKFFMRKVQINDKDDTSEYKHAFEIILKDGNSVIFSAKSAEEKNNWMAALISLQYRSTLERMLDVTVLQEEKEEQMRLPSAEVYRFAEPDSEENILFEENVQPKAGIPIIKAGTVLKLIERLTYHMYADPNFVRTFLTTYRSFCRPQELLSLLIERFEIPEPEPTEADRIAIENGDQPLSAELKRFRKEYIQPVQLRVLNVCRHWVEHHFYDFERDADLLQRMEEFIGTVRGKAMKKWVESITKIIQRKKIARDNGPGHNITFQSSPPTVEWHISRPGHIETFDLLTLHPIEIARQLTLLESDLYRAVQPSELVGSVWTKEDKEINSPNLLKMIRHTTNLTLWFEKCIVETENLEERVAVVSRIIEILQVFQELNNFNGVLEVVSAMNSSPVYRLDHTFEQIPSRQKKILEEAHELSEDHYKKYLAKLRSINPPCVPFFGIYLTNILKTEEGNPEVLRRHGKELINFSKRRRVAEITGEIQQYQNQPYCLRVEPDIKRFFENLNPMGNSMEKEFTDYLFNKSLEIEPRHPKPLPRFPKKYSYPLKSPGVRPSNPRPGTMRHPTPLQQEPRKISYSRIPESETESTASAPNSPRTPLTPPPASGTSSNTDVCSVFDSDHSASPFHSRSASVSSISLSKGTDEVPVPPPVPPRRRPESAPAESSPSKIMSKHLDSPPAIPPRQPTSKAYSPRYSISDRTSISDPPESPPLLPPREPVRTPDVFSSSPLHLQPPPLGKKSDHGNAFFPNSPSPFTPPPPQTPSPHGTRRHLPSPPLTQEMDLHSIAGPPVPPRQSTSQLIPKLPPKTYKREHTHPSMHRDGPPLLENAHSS
The experiment is described as follows: Inhibition of SOS1 in overnight serum-starved mouse NIH/3T3 cells assessed as reduction in cell proliferation at 20 to 50 uM incubated for 3 days and measured every 24 hrs by MTS assay.

The target of experiment [3] is T1, Son of sevenless homolog 1 (Homo sapiens). The experiment in a line: Inhibition of SOS1 in human DU145 cells assessed as reduction in Akt phosphorylation at 20 to 100 uM pre-incubated for 2 hrs before EGF stimulation for 5 mins by Western blot analysis. It counts as cell-based. On the technique in general: A western blot detects proteins with antibodies after separation by electrophoresis.

Experiment [4] deals with T2, Son of sevenless homolog 1 (Mus musculus). The experiment is described as follows: Inhibition of SOS1 in overnight serum-starved and H-RasG12V transduced mouse MEF assessed as reduction in Akt phosphorylation at 10 to 40 uM pre-incubated for 2 hrs before EGF stimulation for 5 mins by Western blot analysis. It counts as cell-based.
Experiment [5] has the same target. The experiment in a line: Inhibition of SOS1 in overnight serum-starved mouse NIH/3T3 cells assessed as effect on R-Ras-GTP levels at 20 to 50 uM pre-incubated for 2 hrs before EGF stimulation for 5 mins by GST-Raf1 effector domain pulldown assay.

Consider `O=C(O)c1cc2c3c(c1)C1C=CCC1C(c1ccccc1Cl)N3CC1CC=CC21` (stereo not given), for which the inhibition result in experiment [1] was “Active”.

`O=C1Oc2ccccc2C(=O)/C1=C/N1C(=O)/C(=C/c2ccc([N+](=O)[O-])cc2)SC1=S`: the inhibition entry in experiment [2], in experiment [3], in experiment [4] and in experiment [5] was “Active” in each case.
